The values that follow come from PubChem BioAssay (NCI).

Test systems include DU-145 prostate; SNB-19 CNS; SK-OV-3 ovarian; HS 578T breast; SF-539 CNS; NCI-H522 lung; COLO 205 colon; NCI-H226 lung.
What all share (test): NCI anticancer screen, dose series, 48 h

“And” between values parts separate entries of the source, which are not always exact repeats. Equal values may be shown once.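 How tested: cells in 96-well plates exposed to compound for 48 hours at five concentrations. The concentration for 50% growth inhibition is given as GI50. Definition used: TGI = concentration required for complete inhibition of growth.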

For `CC(N)(Cc1c[nH]c2ccccc12)C(=O)O` (centres undefined), the GI50 was above 2500 µM in the experiment on DU-145 prostate; above 2500 µM in the experiment with SNB-19 CNS; above 2500 µM in the experiment on SK-OV-3 ovarian; 1090 µM in the experiment on HS 578T breast; above 2500 µM in the experiment on SF-539 CNS; above 2500 µM with NCI-H522 lung. The GI50 in the experiment on COLO 205 colon and in the experiment with NCI-H226 lung was above 2500 µM in each case. Also, the TGI in the experiment on DU-145 prostate, in the experiment on SNB-19 CNS, in the experiment on SK-OV-3 ovarian, in the experiment with HS 578T breast, in the experiment on SF-539 CNS and with NCI-H522 lung was above 2500 µM in each case. The TGI with COLO 205 colon and with NCI-H226 lung was above 2500 µM throughout.

For the compound `Fc1c[c-]c(-c2ccccn2)c(F)c1.[CH3-].[Pt+2].c1ccc([PH+](c2ccccc2)c2ccccn2)cc1`, the GI50 with DU-145 prostate is 1.79 µM; in the experiment on SNB-19 CNS, 3.25 µM; in the experiment on SK-OV-3 ovarian it was 5.09 µM; with HS 578T breast it was 1.96 µM; with SF-539 CNS it was 1.58 µM; in the experiment with NCI-H522 lung, 1.94 µM. Moreover, the GI50 with COLO 205 colon was 1.77 µM; in the experiment with NCI-H226 lung it was 1.73 µM. The TGI in the experiment with DU-145 prostate was 3.92 µM; in the experiment on SNB-19 CNS it was above 100 µM; with SK-OV-3 ovarian, above 100 µM; with HS 578T breast, 5.89 µM; with SF-539 CNS, 3.07 µM; with NCI-H522 lung it was 8.18 µM. Further, the TGI with COLO 205 colon worked out at 5.72 µM; with NCI-H226 lung it was 3.8 µM.

With `COc1ccc(-c2ccc3ncc4c(c3c2)n(-c2ccc(N3CCNCC3)c(C(F)(F)F)c2)c(=O)n4C)cn1`, the GI50 in the experiment with DU-145 prostate was < 0.01 µM and 0.00475 µM; in the experiment with SNB-19 CNS, < 0.01 µM and 0.00778 µM; with SK-OV-3 ovarian, < 0.01 µM and 0.006 µM; with HS 578T breast, < 0.01 µM and 0.00197 µM; with SF-539 CNS, < 0.011 µM and 0.0132 µM; with NCI-H522 lung it was < 0.01 µM and 0.00669 µM. For the same compound, the GI50 with COLO 205 colon was < 0.01 µM and 0.00994 µM; with NCI-H226 lung, 0.00858 µM. The TGI with DU-145 prostate is 0.686 µM and 0.433 µM; with SNB-19 CNS, 1.2 µM and 0.254 µM; in the experiment with SK-OV-3 ovarian, 0.0183 µM and 0.0462 µM; in the experiment on HS 578T breast, 0.0181 µM and 0.013 µM; in the experiment with SF-539 CNS it was 0.0606 µM and 0.0587 µM; in the experiment on NCI-H522 lung, 1.07 µM and 0.379 µM. For the same compound, the TGI in the experiment with NCI-H226 lung is 0.116 µM.

As to `NC(=O)c1ccc2nc(-c3ccc(C4(N)CCC4)cc3)c(-c3ccccc3)n2n1`, the GI50 with DU-145 prostate was 14.8 µM; in the experiment with SNB-19 CNS, 11.3 µM; with SK-OV-3 ovarian, 0.243 µM; in the experiment on HS 578T breast, 0.863 µM; with SF-539 CNS, 2.13 µM; in the experiment on NCI-H522 lung it was 16.7 µM. Besides, the GI50 with COLO 205 colon was 0.976 µM; with NCI-H226 lung, 12.7 µM. Also, the TGI in the experiment with DU-145 prostate is 33.1 µM; in the experiment with SNB-19 CNS it was 25.8 µM; with SK-OV-3 ovarian it was 12.7 µM; with HS 578T breast, 10 µM; in the experiment on SF-539 CNS, 13.7 µM; in the experiment with NCI-H522 lung it was 33.9 µM. The TGI with COLO 205 colon amounted to 19 µM; with NCI-H226 lung it was 32.5 µM.

For the compound `C[n+]1c2cc(N)ccc2cc2ccc(N)cc21` (tested in a mixture with another compound), the GI50 was 0.584 µM with DU-145 prostate; 0.578 µM in the experiment with SNB-19 CNS; 1.35 µM in the experiment on SK-OV-3 ovarian; 0.687 µM in the experiment on HS 578T breast; 0.498 µM with SF-539 CNS; 0.217 µM in the experiment on NCI-H522 lung. Besides, the GI50 with COLO 205 colon was 0.148 µM; with NCI-H226 lung it was 0.291 µM. Besides, the TGI stood at 4.88 µM in the experiment on DU-145 prostate; 3.94 µM with SNB-19 CNS; 6.15 µM in the experiment on SK-OV-3 ovarian; 3.56 µM in the experiment on HS 578T breast; 6.22 µM in the experiment on SF-539 CNS; 0.839 µM with NCI-H522 lung. Besides, the TGI turned out to be 1.3 µM in the experiment with COLO 205 colon and 1.79 µM in the experiment on NCI-H226 lung.

As to `CCc1nc(-n2c(CC)nc3ccccc3c2=O)nc(N)c1-c1ccc(Cl)cc1`, the GI50 in the experiment with DU-145 prostate is above 76.5 µM; in the experiment on SNB-19 CNS it was above 81.1 µM; with SK-OV-3 ovarian, above 100 µM; with HS 578T breast, 48.4 µM; with SF-539 CNS, 30.4 µM; in the experiment with NCI-H522 lung, above 100 µM. Also, the GI50 is 19.3 µM with COLO 205 colon and above 100 µM in the experiment with NCI-H226 lung. For the same compound, the TGI in the experiment with DU-145 prostate, in the experiment with SNB-19 CNS, in the experiment with SK-OV-3 ovarian, with HS 578T breast, in the experiment on SF-539 CNS and in the experiment on NCI-H522 lung was above 100 µM throughout. The results for the TGI in the experiment with COLO 205 colon and with NCI-H226 lung were above 79.3 µM and above 100 µM, respectively.

As for `COc1ccc(S(=O)(=O)NC2=NCCN2C(=S)SN2CCn3c2nsc3=S)cc1OC`, the GI50 with DU-145 prostate was 41 µM; with SNB-19 CNS it was 26.6 µM; in the experiment on SK-OV-3 ovarian, 21.9 µM; with HS 578T breast, 28.4 µM; in the experiment with SF-539 CNS it was 34.3 µM; in the experiment on NCI-H522 lung it was 13 µM. Further, the GI50 in the experiment on COLO 205 colon was 12.5 µM; with NCI-H226 lung, 26.5 µM. Also, the TGI with DU-145 prostate is above 100 µM; with SNB-19 CNS, above 100 µM; with SK-OV-3 ovarian it was 55.2 µM; in the experiment with HS 578T breast it was above 100 µM; with SF-539 CNS, above 100 µM; with NCI-H522 lung, 38.8 µM. The TGI was found to be 29 µM with COLO 205 colon and 81.5 µM with NCI-H226 lung.

For the compound `COc1cc(/C=C/C(=O)NC[C@]2(O)CCC3C4CCc5cc(O)ccc5C4CCC32C)ccc1O` (some centres undefined), the GI50 in the experiment with DU-145 prostate was 23.9 µM; with SNB-19 CNS, 49 µM; in the experiment with SK-OV-3 ovarian it was 82.6 µM; in the experiment on HS 578T breast, 67.6 µM; in the experiment on SF-539 CNS, 16.1 µM; in the experiment on NCI-H522 lung, 6.89 µM. The values for the GI50 with COLO 205 colon and in the experiment on NCI-H226 lung were 13.4 µM and 35.1 µM, respectively. Moreover, the TGI in the experiment with DU-145 prostate is above 100 µM; in the experiment on SNB-19 CNS, above 100 µM; with SK-OV-3 ovarian, above 100 µM; in the experiment on HS 578T breast it was above 100 µM; in the experiment with SF-539 CNS, above 100 µM; in the experiment with NCI-H522 lung, 51.7 µM. Also, the results for the TGI in the experiment with COLO 205 colon and in the experiment on NCI-H226 lung were 64.5 µM and above 100 µM, respectively.

Turning to `Cc1c2cnccc2c(C)c2c1c1cc(C(=O)O)ccc1n2C`, the GI50 in the experiment with DU-145 prostate is 1.14 µM; with SNB-19 CNS it was 0.738 µM; in the experiment with SK-OV-3 ovarian, 0.905 µM; with HS 578T breast, 0.891 µM; with SF-539 CNS it was 1.01 µM; with NCI-H522 lung, 0.943 µM. Moreover, the GI50 with COLO 205 colon is 0.594 µM; with NCI-H226 lung it was 0.454 µM. Moreover, the TGI with DU-145 prostate was found to be 5.96 µM; with SNB-19 CNS, 10.3 µM; in the experiment on SK-OV-3 ovarian it was 7.63 µM; in the experiment with HS 578T breast, 4.82 µM; in the experiment with SF-539 CNS it was 3.27 µM; in the experiment on NCI-H522 lung, 3.9 µM. The TGI in the experiment on COLO 205 colon came out at 4.02 µM; with NCI-H226 lung, 2.47 µM.

As to `CCN1/C(=C/C=C/C=C/c2sc3ccccc3[n+]2CC)Sc2ccccc21`, the GI50 in the experiment with DU-145 prostate is 0.394 µM; in the experiment on SNB-19 CNS, 0.35 µM; with SK-OV-3 ovarian, 0.359 µM; in the experiment with HS 578T breast, 0.272 µM; with SF-539 CNS, 0.377 µM; with NCI-H522 lung, 0.281 µM. In addition, the figures for the GI50 in the experiment with COLO 205 colon and in the experiment with NCI-H226 lung were 0.191 µM and 0.344 µM, respectively. Besides, the TGI with DU-145 prostate was found to be 1.73 µM; in the experiment with SNB-19 CNS, 1.89 µM; in the experiment on SK-OV-3 ovarian, 1.13 µM; in the experiment on HS 578T breast, 0.987 µM; with SF-539 CNS it was 2.49 µM; in the experiment with NCI-H522 lung it was 1.51 µM. In addition, the TGI with COLO 205 colon stood at 0.347 µM; in the experiment with NCI-H226 lung, 2.99 µM.

`COc1cc([N+](=O)[O-])c(S(=O)(=O)O)cc1N`: the TGI in the experiment with DU-145 prostate, in the experiment with SNB-19 CNS, in the experiment on SK-OV-3 ovarian, with HS 578T breast, in the experiment with SF-539 CNS and in the experiment with NCI-H522 lung was above 100 µM each time. The TGI with COLO 205 colon and with NCI-H226 lung was above 100 µM each time.

Take `Nc1ccc(-c2ccc(Nc3cc(S(=O)(=O)O)c(N)c4c3C(=O)c3ccccc3C4=O)cc2)c(S(=O)(=O)O)c1`: the TGI in the experiment with DU-145 prostate, with SNB-19 CNS, in the experiment with SK-OV-3 ovarian, in the experiment on HS 578T breast, with SF-539 CNS and with NCI-H522 lung was above 100 µM each time. In addition, the TGI in the experiment with COLO 205 colon and in the experiment with NCI-H226 lung was above 100 µM each time.

On to `Cc1cc(Nc2cc(CN3CCOCC3)c3nc(C)c(Cc4ccc(Cl)cc4F)n3n2)n[nH]1`, for which the GI50 with DU-145 prostate was 1.24 µM; in the experiment on SNB-19 CNS, 6.31 µM; in the experiment with SK-OV-3 ovarian it was 2.02 µM; in the experiment with HS 578T breast, 0.915 µM; in the experiment on SF-539 CNS it was 1.36 µM; in the experiment on NCI-H522 lung, 0.566 µM. In addition, the figures for the GI50 in the experiment on COLO 205 colon and in the experiment with NCI-H226 lung were 0.684 µM and 0.561 µM, respectively. Moreover, the TGI with DU-145 prostate was found to be 11.5 µM; with SNB-19 CNS, 19 µM; in the experiment on SK-OV-3 ovarian, 6.38 µM; with HS 578T breast, 5.6 µM; with SF-539 CNS, 3.26 µM; with NCI-H522 lung, 2.02 µM. Also, the values for the TGI in the experiment with COLO 205 colon and with NCI-H226 lung were 2.01 µM and 4.07 µM, respectively.

Turning to `C/C(=C1/N=C(c2ccccc2)OC1=O)c1ccc(C)cc1`, the TGI in the experiment with DU-145 prostate, in the experiment with SNB-19 CNS, with SK-OV-3 ovarian, with HS 578T breast, with SF-539 CNS and in the experiment with NCI-H522 lung was above 100 µM throughout. Further, the TGI with COLO 205 colon and in the experiment on NCI-H226 lung was above 100 µM throughout.
